# Assay results published in patent US10274488B2, “Glycan arrays on PTFE-like aluminum coated glass slides and related methods” (Academia Sinica, priority 2008, dated 2019).
# Experiments:
# Format in all cases: biochemical, Clostridium thermocellum
# exoglucanase L3 [1] = experiment: Enzymatic hydrolysis in solution with purified exoglucanase L3, MS-TOF assay; details: reaction in solution
# Procedure: (§1) To verify, the exoglucanases (L3) and endoglucanase (44A) were prepared according methods well known in the literature with minor modifications. First, enzymatic hydrolysis reactions were conducted in solution with the purified enzymes using substrates 8, 9 and 10. At the completion of the reaction, the solution mixtures were transferred to the PTFE-like ACG slide, and prepared by using the same washing procedures before being subjected to MS-TOF assay.
# (§2) For each carbohydrate, a specific enzyme was added: (a) is the control run without enzymes, (b) is exoglucanase L3, and (c) is endoglucanase 44A. […]
# (§3) Cellulase was prepared (5 U/mL in 25 mM pH 5.05 NaOAc buffer solution). Substrate was also dissolved in NaOAc buffer solution (25 mM, pH 5.05) to give 0.5 mM substrate solution. Add 100 uL cellulase solution to 100 uL substrate solution in eppendorf to have a 2.5 U/mL cellulase solution with 0.25 mM substrate. This solution was incubated in 37° C. for 18 hours. Add 100 μL incubated solution onto the slide loaded in FAST® Frame. Put the slide in dry box to remove the water, and then use high vacuum to remove trace water. 100 μL water was used to rinse each well of the FAST® Frame multi-slide plate to solve and remove the salt of the buffer solution. Remove any residual water on the plate by high vacuum and then analyzed the slide by MALDI-TOF Ultra-Flex II.
# (§4) The genomic DNA of Sulfolobus solfataricus (ATCC 35092) and Clostridium thermocellum (ATCC 27405) were obtained from the ATCC biological resource center. The Sso7d (NCBI accession number: AAK42090) gene fragment was amplified directly from the Sulfolobus solfataricus genome by polymerase chain reaction (PCR) with forward 5′ […] 3′ (SEQ ID NO: 1) and reverse 5′ […] 3′ (SEQ ID NO: 2) primers. The PCR product encoding Sso7d was digested with NdeI and BamHI and subsequently cloned into expression vector pET-28a (Novagen) to generate pET-28-Sso7d. […]
# exoglucanase L3 [2] = experiment: Enzymatic hydrolysis on the PTFE-like ACG surface with exoglucanase L3, MS-TOF assay; details: substrate immobilized on the PTFE-like ACG surface, 24 hours of incubation
# Procedure: as §2
# (§5) For comparison and as illustrated according to implementations shown in FIG. 23, substrate 8, 9, and 10 were immobilized on the PTFE-like ACG surface and carried out the cellulase hydrolysis on the surface directly, after the same washing procedures, these slides were subjected to MS-TOF assay. […] The endoglucanase 44A can't accept compound 8 or 9 as a substrate. […] From the above results, the cellotetraose substrate 10 was the best carbohydrate to create array on the PTFE-like ACG surface for the experiments conducted. By using this array, the activity and specificity of unknown cellulase may be examined.
# Cellulase was prepared (5 U/mL in 25 mM pH 5.05 NaOAc buffer solution). Substrate was also dissolved in NaOAc buffer solution (25 mM, pH 5.05) to give 0.5 mM substrate solution. Add 50 μL cellulase solution to 50 μL substrate solution onto the glass slide which was loaded in FAST® Frame multi-slide plate to have a 2.5 U/mL cellulase solution with 0.25 mM substrate. […] Put the slide in dry box to remove the water, and then use high vacuum to remove trace water. 100 uL water was used to rinse each well of the FAST® Frame multi-slide plate to solve and remove the salt of the buffer solution. Remove any residual water on the plate by high vacuum and then analyzed the slide by MALDI-TOF Ultra-Flex II.
# as §4, with “primers.” for “primers. The PCR product encoding Sso7d was digested with NdeI and BamHI and subsequently cloned into expression vector pET-28a (Novagen) to generate pET-28-Sso7d.”
# endoglucanase 44A [3] = experiment: Enzymatic hydrolysis in solution with purified endoglucanase 44A, MS-TOF assay; details: reaction in solution
# Procedure: as §1, §2, §3, §4
# endoglucanase 44A [4] = experiment: Enzymatic hydrolysis on the PTFE-like ACG surface with endoglucanase 44A, MS-TOF assay; details: substrate immobilized on the PTFE-like ACG surface
# Procedure: as §2, §5
# Cellulase was prepared (5 U/mL in 25 mM pH 5.05 NaOAc buffer solution). Substrate was also dissolved in NaOAc buffer solution (25 mM, pH 5.05) to give 0.5 mM substrate solution. Add 50 μL cellulase solution to 50 μL substrate solution onto the glass slide which was loaded in FAST® Frame multi-slide plate to have a 2.5 U/mL cellulase solution with 0.25 mM substrate. The well of the plate was sealed and the whole assembly was incubated in 37° C. for 18 hours. Put the slide in dry box to remove the water, and then use high vacuum to remove trace water. 100 uL water was used to rinse each well of the FAST® Frame multi-slide plate to solve and remove the salt of the buffer solution. Remove any residual water on the plate by high vacuum and then analyzed the slide by MALDI-TOF Ultra-Flex II.
# as §4, with “primers.” for “primers. The PCR product encoding Sso7d was digested with NdeI and BamHI and subsequently cloned into expression vector pET-28a (Novagen) to generate pET-28-Sso7d.”
compound,measurement,setting,value
"O=C(NCCCCCO[C@@H]1O[C@H](CO)[C@@H](O[C@@H]2O[C@H](CO)[C@@H](O[C@@H]3O[C@H](CO)[C@@H](O[C@@H]4O[C@H](CO)[C@@H](O)[C@H](O)[C@H]4O)[C@H](O)[C@H]3O)[C@H](O)[C@H]2O)[C@H](O)[C@H]1O)OCCCC(F)(F)C(F)(F)C(F)(F)C(F)(F)C(F)(F)C(F)(F)C(F)(F)C(F)(F)C(F)(F)F [Compound 10, [(4,4,5,5,6,6,7,7,8,8,9,9,10,10,11,11,12,12,12-nonadecafluorododecoxycarbonyl-amino)pentyl] ß-D-glucopyranosyl-(1→4)-ß-D-glucopyranosyl-(1→4)- -ß-D-glucopyranosyl-(1→4)-13-D-glucopyranoside]",Cleavage of the substrate by exoglucanase L3 (in words),exoglucanase L3 [1],quickly
same,Cleavage of the substrate by exoglucanase L3 (in words),exoglucanase L3 [2],cleaved the cellobiose quickly
same,Cleavage of the substrate by endoglucanase 44A (in words),endoglucanase 44A [3],cleaves the trisaccharide or tetrasaccharide unit
same,Cleavage of the substrate by endoglucanase 44A (in words),endoglucanase 44A [4],cleaved cellotetraose quickly
